From patent US10670605B2, “Cysteine reactive probes and uses thereof” (The Scripps Research Institute, priority 2015, dated 2020)

Legend:
Test in all cases: Competitive isoTOP-ABPP in situ (fragment-treated cells)
Assay type in all cases: cell-based
[1] = target: cysteines in MDA-MB-231 and Ramos cells (Homo sapiens, UniProt Q96NY7)
[2] = target: T1, cysteines in MDA-MB-231 and Ramos cells (Homo sapiens, UniProt Q86X76)
T1 sequence (Q86X76 14-327): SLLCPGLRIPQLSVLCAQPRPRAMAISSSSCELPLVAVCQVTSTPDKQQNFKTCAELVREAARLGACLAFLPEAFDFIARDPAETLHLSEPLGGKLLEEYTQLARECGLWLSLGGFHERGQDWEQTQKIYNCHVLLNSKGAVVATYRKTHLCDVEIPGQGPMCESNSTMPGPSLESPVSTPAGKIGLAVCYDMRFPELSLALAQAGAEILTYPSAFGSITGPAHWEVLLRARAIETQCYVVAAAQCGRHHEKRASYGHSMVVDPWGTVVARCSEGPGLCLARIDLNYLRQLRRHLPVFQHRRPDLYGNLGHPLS

[3] = target: T2, cysteines in MDA-MB-231 and Ramos cells (Homo sapiens, UniProt O14929)
T2 sequence (O14929 1-419): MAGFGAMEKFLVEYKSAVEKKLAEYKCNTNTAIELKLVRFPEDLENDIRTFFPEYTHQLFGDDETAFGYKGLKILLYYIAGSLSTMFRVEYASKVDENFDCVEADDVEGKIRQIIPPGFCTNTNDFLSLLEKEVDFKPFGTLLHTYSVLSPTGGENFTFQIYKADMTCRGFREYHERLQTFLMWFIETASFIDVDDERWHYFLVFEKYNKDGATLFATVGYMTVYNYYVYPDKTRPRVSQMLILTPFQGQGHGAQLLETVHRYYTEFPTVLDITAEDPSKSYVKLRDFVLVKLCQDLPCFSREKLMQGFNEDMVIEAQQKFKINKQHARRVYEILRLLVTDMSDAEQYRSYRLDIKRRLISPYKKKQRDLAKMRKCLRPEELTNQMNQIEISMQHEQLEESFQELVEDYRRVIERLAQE

[4] = target: T3, cysteines in MDA-MB-231 and Ramos cells (Homo sapiens, UniProt Q96P48); conditions: 200 μM, insitu
T3 sequence (Q96P48 1-1450): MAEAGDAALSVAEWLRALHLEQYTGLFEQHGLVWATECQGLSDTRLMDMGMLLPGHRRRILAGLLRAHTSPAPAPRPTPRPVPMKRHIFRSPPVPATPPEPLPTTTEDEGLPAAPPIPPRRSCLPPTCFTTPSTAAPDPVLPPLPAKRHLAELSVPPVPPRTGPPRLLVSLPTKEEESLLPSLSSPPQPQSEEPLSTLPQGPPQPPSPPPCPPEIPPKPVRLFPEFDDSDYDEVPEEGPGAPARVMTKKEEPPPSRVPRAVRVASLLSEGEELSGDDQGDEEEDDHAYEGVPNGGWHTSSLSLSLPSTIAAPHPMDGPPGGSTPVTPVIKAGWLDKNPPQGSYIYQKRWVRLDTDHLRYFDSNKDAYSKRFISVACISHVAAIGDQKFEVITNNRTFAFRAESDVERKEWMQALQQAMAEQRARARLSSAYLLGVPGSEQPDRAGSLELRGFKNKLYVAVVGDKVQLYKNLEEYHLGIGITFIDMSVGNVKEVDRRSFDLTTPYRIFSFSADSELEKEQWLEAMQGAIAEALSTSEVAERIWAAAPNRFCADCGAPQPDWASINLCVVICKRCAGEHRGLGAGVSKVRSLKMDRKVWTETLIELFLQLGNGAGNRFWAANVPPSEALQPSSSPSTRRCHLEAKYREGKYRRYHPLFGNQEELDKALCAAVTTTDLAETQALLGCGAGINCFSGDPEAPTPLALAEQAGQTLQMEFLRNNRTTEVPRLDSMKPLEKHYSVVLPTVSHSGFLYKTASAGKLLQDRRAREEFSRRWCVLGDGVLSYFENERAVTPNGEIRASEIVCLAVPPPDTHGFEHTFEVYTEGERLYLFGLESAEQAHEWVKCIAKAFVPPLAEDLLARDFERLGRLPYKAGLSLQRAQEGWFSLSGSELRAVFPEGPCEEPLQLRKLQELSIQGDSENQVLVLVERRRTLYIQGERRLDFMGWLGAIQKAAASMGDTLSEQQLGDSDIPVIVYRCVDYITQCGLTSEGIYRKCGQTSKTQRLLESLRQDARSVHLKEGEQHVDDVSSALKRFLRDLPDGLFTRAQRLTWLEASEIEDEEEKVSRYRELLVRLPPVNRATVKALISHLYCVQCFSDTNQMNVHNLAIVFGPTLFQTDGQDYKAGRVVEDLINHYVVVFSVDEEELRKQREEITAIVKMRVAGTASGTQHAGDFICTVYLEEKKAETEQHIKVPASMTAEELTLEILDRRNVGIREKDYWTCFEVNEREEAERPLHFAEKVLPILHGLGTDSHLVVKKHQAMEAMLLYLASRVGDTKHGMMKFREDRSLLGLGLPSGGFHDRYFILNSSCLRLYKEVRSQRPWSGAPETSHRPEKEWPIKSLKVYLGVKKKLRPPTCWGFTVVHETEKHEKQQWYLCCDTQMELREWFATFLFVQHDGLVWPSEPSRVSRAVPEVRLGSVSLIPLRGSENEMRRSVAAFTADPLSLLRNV

[5] = target: cysteines in MDA-MB-231 and Ramos cells (Homo sapiens, UniProt Q8NDH3)
Sequence of cysteines in MDA-MB-231 and Ramos cells (Homo sapiens, UniProt Q8NDH3) (Q8NDH3 whole entry): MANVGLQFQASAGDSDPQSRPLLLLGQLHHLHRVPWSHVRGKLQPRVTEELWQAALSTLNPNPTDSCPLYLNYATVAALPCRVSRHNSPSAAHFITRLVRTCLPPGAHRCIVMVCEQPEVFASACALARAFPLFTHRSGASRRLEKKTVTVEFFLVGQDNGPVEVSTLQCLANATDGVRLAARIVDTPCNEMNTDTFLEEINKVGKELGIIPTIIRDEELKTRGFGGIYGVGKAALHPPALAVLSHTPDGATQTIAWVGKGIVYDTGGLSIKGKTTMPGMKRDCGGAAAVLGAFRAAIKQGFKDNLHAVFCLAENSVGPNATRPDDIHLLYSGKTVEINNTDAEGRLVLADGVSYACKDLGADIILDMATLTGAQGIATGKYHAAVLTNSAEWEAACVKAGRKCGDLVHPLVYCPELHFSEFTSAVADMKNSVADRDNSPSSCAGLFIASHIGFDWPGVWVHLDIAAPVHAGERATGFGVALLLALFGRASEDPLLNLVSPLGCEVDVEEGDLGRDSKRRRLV

Sequence of cysteines in MDA-MB-231 and Ramos cells (Homo sapiens, UniProt Q96NY7) (Q96NY7 whole entry): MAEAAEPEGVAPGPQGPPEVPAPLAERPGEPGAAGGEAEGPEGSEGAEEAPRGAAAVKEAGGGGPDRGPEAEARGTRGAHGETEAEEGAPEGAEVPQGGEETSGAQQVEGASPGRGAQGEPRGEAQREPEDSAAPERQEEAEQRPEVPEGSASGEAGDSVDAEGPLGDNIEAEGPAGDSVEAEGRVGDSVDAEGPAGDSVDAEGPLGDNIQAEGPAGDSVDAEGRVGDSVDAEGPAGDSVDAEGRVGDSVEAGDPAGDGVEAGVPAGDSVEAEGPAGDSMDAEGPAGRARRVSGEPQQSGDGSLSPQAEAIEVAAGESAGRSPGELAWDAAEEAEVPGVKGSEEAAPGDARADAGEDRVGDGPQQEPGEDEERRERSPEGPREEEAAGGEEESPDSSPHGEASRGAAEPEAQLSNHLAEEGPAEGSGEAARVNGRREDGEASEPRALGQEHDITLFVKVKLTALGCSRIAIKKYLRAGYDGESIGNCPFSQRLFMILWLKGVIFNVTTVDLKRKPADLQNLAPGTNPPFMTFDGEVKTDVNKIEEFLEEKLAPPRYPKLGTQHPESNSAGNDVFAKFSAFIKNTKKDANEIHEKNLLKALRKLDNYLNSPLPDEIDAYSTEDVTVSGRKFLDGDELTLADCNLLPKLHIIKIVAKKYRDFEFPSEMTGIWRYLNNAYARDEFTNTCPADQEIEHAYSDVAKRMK

Cc1ccc(C=C(C#N)C(=O)NCCN2CCOCC2)cc1 [compound 41]
isoTOP-ABPP ratio Q96NY7_C487 ([1]; 200 μM, insitu, 231): 0.4 | isoTOP-ABPP ratio Q86X76_C203 ([2]; 200 μM, insitu, 231): 1.3 | isoTOP-ABPP ratio O14929_C101 ([3]; 200 μM, insitu, 231): 0.6 | isoTOP-ABPP ratio Q96P48_C900 [4]; 231: 0.5

O=C(CCl)NC(=O)NC12CC3CC(CC(C3)C1)C2 [compound 12]
isoTOP-ABPP ratio, cysteine Q8NDH3_C81 ([5]; 200 μM, insitu, 231): 20.0 | isoTOP-ABPP ratio Q96NY7_C487 ([1]; 200 μM, insitu, 231): 20.0 | isoTOP-ABPP ratio, cysteine Q86X76_C203 ([2]; 200 μM, insitu, 231): 3.9 | isoTOP-ABPP ratio O14929_C101 ([3]; 200 μM, insitu, 231): 20.0 | isoTOP-ABPP ratio, cysteine Q96P48_C900 [4]; 231: 1.9

O=C(CCl)NCCc1c[nH]c2ccccc12 [compound 13]
isoTOP-ABPP ratio Q96NY7_C487 ([1]; 200 μM, insitu, 231): 1.9 | isoTOP-ABPP ratio O14929_C101 ([3]; 200 μM, insitu, 231): 0.9 | isoTOP-ABPP ratio O14929_C101 ([3]; 200 μM, insitu, ramos): 1.2 | isoTOP-ABPP ratio, cysteine Q96P48_C900 [4]; 231: 1.2

O=C(CCl)N1CCC(Cc2ccccc2)CC1 [compound 9]
isoTOP-ABPP reactivity Q96NY7_C487 CLIC6 ([1]; 200 μM, insitu, 231): 3.6 | isoTOP-ABPP reactivity O14929_C101 HAT1 ([3]; 200 μM, insitu, 231): 9.0

COc1ccc(C2CC(c3cccs3)=NN2C(=O)CCl)cc1 (centres unmarked) [compound 4]
isoTOP-ABPP reactivity Q8NDH3_C81 NPEPL1 ([5]; 100 μM in situ 231): 20.0 | isoTOP-ABPP reactivity Q96NY7_C487 CLIC6 ([1]; 100 μM in situ 231): 20.0 | isoTOP-ABPP reactivity Q86X76_C203 NIT1 ([2]; 100 μM in situ 231): 0.7

O=C(CCl)NC12CC3CC(CC(C3)C1)C2 [compound 21]
isoTOP-ABPP ratio, cysteine Q8NDH3_C81 ([5]; 200 μM, insitu, 231): 1.6 | isoTOP-ABPP ratio Q96NY7_C487 ([1]; 200 μM, insitu, 231): 1.2 | isoTOP-ABPP ratio, cysteine Q86X76_C203 ([2]; 200 μM, insitu, 231): 0.8 | isoTOP-ABPP ratio O14929_C101 ([3]; 200 μM, insitu, 231): 1.2 | isoTOP-ABPP ratio, cysteine Q96P48_C900 [4]; 231: 0.7

Cn1cc(S(=O)(=O)N2CCOCC2)cc1C(=O)NC(=O)CCl [compound 11]
isoTOP-ABPP ratio Q96NY7_C487 ([1]; 100 μM in situ 231): 3.1 | isoTOP-ABPP ratio, cysteine Q86X76_C203 ([2]; 100 μM in situ 231): 0.8 | isoTOP-ABPP ratio O14929_C101 ([3]; 100 μM in situ 231): 0.8

C=CC(=O)Nc1cc(F)c(N2CCN(C(=O)OC(C)(C)C)CC2)c(F)c1 [compound 38]
isoTOP-ABPP ratio Q8NDH3_C81 ([5]; 200 μM, insitu, 231): 2.0 | isoTOP-ABPP ratio O14929_C101 ([3]; 200 μM, insitu, 231): 1.1

CC1CCc2ccccc2N1C(=O)CCl (centres unmarked) [compound 45]
isoTOP-ABPP ratio Q96NY7_C487 ([1]; 200 μM, insitu, 231): 1.8 | isoTOP-ABPP ratio Q86X76_C203 ([2]; 200 μM, insitu, 231): 20.0 | isoTOP-ABPP ratio O14929_C101 ([3]; 200 μM, insitu, 231): 20.0

COc1ccc2c(c1)CCCN2C(=O)CCl [compound 2]
isoTOP-ABPP reactivity Q8NDH3_C81 NPEPL1 ([5]; 200 μM, insitu, 231): 20.0 | isoTOP-ABPP reactivity Q96P48_C900 ARAP1 [4]; 231: 5.5

COc1cc2c(cc1OC)CN(C(=O)CCl)CC2 [compound 8]
isoTOP-ABPP reactivity Q8NDH3_C81 NPEPL1 ([5]; 200 μM, insitu, 231): 20.0 | isoTOP-ABPP reactivity Q96NY7_C487 CLIC6 ([1]; 200 μM, insitu, 231): 5.1

O=C(CCl)N1CCN(S(=O)(=O)c2ccccc2F)CC1 [compound 10]
isoTOP-ABPP ratio, cysteine Q8NDH3_C81 ([5]; 200 μM, insitu, 231): 5.7 | isoTOP-ABPP ratio Q96NY7_C487 ([1]; 200 μM, insitu, 231): 3.2 | isoTOP-ABPP ratio O14929_C101 ([3]; 200 μM, insitu, 231): 20.0 | isoTOP-ABPP ratio, cysteine Q96P48_C900 [4]; 231: 1.8

O=C(CCl)N1CCN(CC(=O)N2CCOCC2)CC1 [compound 29]
isoTOP-ABPP ratio O14929_C101 ([3]; 200 μM, insitu, ramos): 1.0 | isoTOP-ABPP ratio Q96P48_C900 ([4]; ramos): 1.1

C=CC(=O)N(Cc1cccnc1)c1cc(C(F)(F)F)cc(C(F)(F)F)c1 [compound 31]
isoTOP-ABPP ratio Q8NDH3_C81 ([5]; 200 μM, insitu, 231): 1.0 | isoTOP-ABPP ratio Q96NY7_C487 ([1]; 200 μM, insitu, 231): 0.5 | isoTOP-ABPP ratio Q96P48_C900 [4]; 231: 1.1
